# Experimental data from publication PMC11229374, “Unlocking the potential of protein-derived peptides to target G-quadruplex DNA: from recognition to anticancer activity” (Nucleic Acids Research, 2024).
# Where “and” joins values, the source holds several entries; their conditions need not be identical. Equal values may be shown once.
# Tests used:
# c-KIT1 G4 = settings: CD melting at 264 nm, 2 μM DNA, 1 mol equiv peptide, 5 mM KH2PO4/K2HPO4 pH 7.0, 20 mM KCl, 1°C/min; average of three; T1/2 DNA alone 53.8°C
# Description: (§1) CD experiments were carried out using a Jasco J-815 spectropolarimeter equipped with a PTC-423S/15 Peltier temperature controller. G4-forming and duplex-forming DNA molecules were prepared at a concentration of 2 μM in 5 mM KH2PO4/K2HPO4 buffer (pH 7.0) containing 20 mM KCl or LiCl. CD spectra of DNA/peptide mixtures were obtained by adding 1 mol equiv of peptide (stock solutions of 10 mM in H2O) with respect to the oligonucleotide. CD spectra of DNA molecules in the absence and presence of peptide were recorded at 20 and 100°C in the wavelength range of 220−320 nm and averaged over three scans, utilizing a scan rate of 100 nm/min with a 0.5 s response time and 1 nm bandwidth. The buffer baseline was subtracted from each spectrum. Additionally, CD spectra of Myb1^397–415 in the absence and presence of G4s were recorded at 20°C in the 200−250 nm wavelength range using a scan rate of 20 nm/min, with a 4 s response time and 2 nm bandwidth. The G4 spectra were subtracted from the corresponding G4/peptide mixtures to obtain information on the peptide spectrum in the presence of G4. The percentage of secondary structures adopted by the peptide in the absence and presence of the G4s was estimated using the BeStSel software ([26]). CD melting experiments were performed in the absence and presence of peptides (1 or 2 mol equiv) in the 20−100°C temperature range at 1°C/min heating rate, monitoring changes of the CD signal at wavelengths corresponding to the maximum CD intensity for the G4s (264 nm for c-KIT1, c-KIT2, c-MYC, HER2, HT-FANA, BCL-2, and VEGFR-17T; 290 nm for HRAS1, LWDLN1, HT1, and HT2) and at 252 nm for ds12 duplex. The apparent melting temperatures (T1/2) were determined using non-linear curve fitting with OriginLab© 2021 software (OriginLab Corp., MA, USA). ΔT1/2 values were calculated as the difference in the T1/2 values of the DNA structures in the presence and absence of a peptide.
# HER2 G4 [1] = settings: CD melting at 264 nm, 2 μM DNA, 1 mol equiv peptide, 5 mM KH2PO4/K2HPO4 pH 7.0, 20 mM KCl, 1°C/min; average of three; T1/2 DNA alone 62.4°C
# Description: as §1
# c-MYC G4 = settings: CD melting at 264 nm, 2 μM DNA, 1 mol equiv peptide, 5 mM KH2PO4/K2HPO4 pH 7.0, 20 mM LiCl, 1°C/min; average of three; T1/2 DNA alone 68.2°C
# Description: as §1
# ds12 duplex = settings: CD melting at 252 nm, 2 μM DNA, 1 mol equiv peptide, 5 mM KH2PO4/K2HPO4 pH 7.0, 20 mM KCl, 1°C/min; average of three; T1/2 DNA alone 62.7°C
# Description: as §1
# VEGFR-17T G4 = settings: CD melting at 264 nm, 2 μM DNA, 1 mol equiv peptide, 5 mM KH2PO4/K2HPO4 pH 7.0, 20 mM KCl, 1°C/min; average of three; T1/2 DNA alone 53.7°C
# Description: as §1
# BCL-2 G4 = settings: CD melting at 264 nm, 2 μM DNA, 1 mol equiv peptide, 5 mM KH2PO4/K2HPO4 pH 7.0, 20 mM KCl, 1°C/min; average of three; T1/2 DNA alone 60.7°C
# Description: as §1
# HT-FANA G4 = settings: CD melting at 264 nm, 2 μM DNA, 1 mol equiv peptide, 5 mM KH2PO4/K2HPO4 pH 7.0, 20 mM KCl, 1°C/min; average of three; T1/2 DNA alone 62.9°C
# Description: as §1
# HER2 G4 [2] = test: Isothermal titration calorimetry (ITC) with HER2 G4; assay type: binding, human; settings: ITC at 25°C, triplicate
# Description: ITC experiments were conducted at 25°C using a nano-ITC Low Volume calorimeter (TA instruments, Lindon, UT, USA). DNA and peptide solutions were prepared using the same batch of buffer (5 mM KH2PO4/K2HPO4 buffer containing 20 mM KCl, pH 7.0) to prevent differences in buffer composition and pH. Each titration consisted of 25 injections of a 2 μl peptide solution (280–400 μM) sequentially injected using a computer-controlled 50 μl syringe, into the calorimetric vessel (190 μl) containing the oligonucleotide (16–20 μM). A spacing of 300 s between each injection was applied to allow the system to reach the equilibrium. The heat generated by peptide dilution was assessed in a control experiment by injecting the peptide solution into the buffer (Supplementary Figure S30). All measurements were performed in triplicate. Subsequently, the interaction heat for each injection was calculated considering the correction for the heat of peptide dilution. The corrected heat values were plotted as a function of the molar ratio to provide binding isotherms. […] The equilibrium dissociation constant (Kd), Gibbs free-energy change and entropy change were determined using the following relationships: Kd = 1/Ka, ΔG° = -RT ln Ka (R = 8.314 J mol^−1 K^−1, T = 298.15 K), and TΔS° = ΔH° – ΔG°.
# HER2 G4 [3] = test: Microscale thermophoresis (MST) binding to HER2 G4; parameters: species or system human; settings: 25°C, 20 nM FITC-labelled peptide, DNA serial dilution, 5 mM KH2PO4/K2HPO4 pH 7.0, 20 mM KCl, 0.1% Tween, 5% DMSO
# Description: MST experiments were conducted using a Monolith NT.115 instrument (NanoTemper Technologies, Munich, Germany) at 25°C with medium MST power settings. […] DNA samples were also diluted using the same buffer supplemented with 0.1% Tween. During MST experiments, the concentration of the labelled peptide was kept constant at 20 nM, while a serial dilution of the investigated DNA molecules (ranging from 10 or 20 μM) was prepared and mixed with the peptide solution in a 1:1 volume ratio. All the samples, with a final concentration of 5% DMSO, were loaded into standard capillaries (NanoTemper Technologies) for MST measurements. Data analysis was carried out using the MO.Affinity Analysis (v2.3) software provided with the instrument.
substance,measurement,setting,value
Ac-NHTGNSIRHRFRVYLSKRL-NH2 [Myb^397–415],ΔT1/2 of c-KIT1 G4,c-KIT1 G4,6.2 (±0.2) °C
same,ΔT1/2 of HER2 G4,HER2 G4 [1],7.0 (±0.2) °C
same,ΔT1/2 of c-MYC G4,c-MYC G4,5.0 (±0.2) °C
same,ΔT1/2 of ds12 duplex,ds12 duplex,1.0 °C and 1.0 (±0.2) °C
same,ΔT1/2 of VEGFR-17T G4,VEGFR-17T G4,0.2 (±0.2) °C
same,ΔT1/2 of BCL-2 G4,BCL-2 G4,8.0 (±0.2) °C
same,ΔT1/2 of HT-FANA G4,HT-FANA G4,8.3 °C and 8.3 (±0.2) °C
same,Ka,"HER2 G4 [2]; HER2 G4 16–20 μM, peptide 280–400 μM, 5 mM KH2PO4/K2HPO4, 20 mM KCl, pH 7.0",1.0 × 10^7 M^−1 and 1.0 (±0.1) ×10^7 M^−1
same,Kd,"HER2 G4 [2]; HER2 G4, Kd = 1/Ka",100 nM
same,Kd,HER2 G4 [3],130 nM
